Several values for one entry are separate records, joined by “and”; a condition that tells them apart may be missing. Equal entries are not always repeated.
Assays:
H 460 (lung carcinoma) = experiment: Antiproliferative activity in vitro, MTT, 72 h; assay type: cell-based, human; conditions: for IC50: Homo sapiens, NCI-H460, 72 h, concentration that causes 50% growth inhibition, 72 h, MTT; for selectivity of antiproliferative activity among cell lines: H 460 versus HCT116, MCF-7, HEK 293
Protocol: (§1) The experiments were performed on four human cell lines, including HCT 116 (colon carcinoma), H 460 (lung carcinoma), MCF-7 (breast carcinoma) and HEK 293 (human embryonic kidney cells), in line with previously published experimental procedures[10]^,[25]. Briefly, the cells were grown in DMEM medium with the addition of 10% foetal bovine serum (FBS), 2 mM L-glutamine, 100 U/mL penicillin and 100 µg/mL streptomycin, and cultured as monolayers at 37 °C in a humidified atmosphere with 5% CO2. Cells were seeded at 2 × 10^3 cells/well in a standard 96-well microtiter plates and left to attach for 24 h. Next day, a test compound was added in five serial 10-fold dilutions. The rate of cell growth was evaluated after 72 h of incubation with MTT reagent. The obtained results are expressed as IC50 values, calculated from the concentration-response curves using linear regression analysis by fitting the test concentrations that give PG values above and below the reference value (i.e. 50%). Each test was performed in quadruplicate in at least two individual experiments.

[1] = system: HEK 293 (human embryonic kidney cells); experiment: Antiproliferative/cytotoxic activity in vitro on non-tumour cells, MTT, 72 h; assay type: cell-based; conditions: Homo sapiens, HEK293; non-tumour cell line; concentration that causes 50% growth inhibition; 72 h, MTT
Protocol: as §1

HCT116 (colon carcinoma) = experiment: Antiproliferative activity in vitro, MTT, 72 h; assay type: cell-based; conditions: Homo sapiens, HCT-116, 72 h, concentration that causes 50% growth inhibition
Protocol: as §1

MCF-7 (breast carcinoma) = experiment: Antiproliferative activity in vitro, MTT, 72 h; assay type: cell-based; conditions: Homo sapiens, MCF7, concentration that causes 50% growth inhibition
Protocol: as §1

[2] = Ferric reducing/antioxidant power (FRAP assay); assay type: biochemical; conditions: triplicate; – = not active in the FRAP assay
Protocol: The FRAP method was carried out according to previously described procedures with some modifications to be compatible with an assay on a 96-well microplate. All results were expressed as Fe^2+ equivalents (Fe^2+ µmol).

[3] = DPPH free radical scavenging (reducing activity of the stable radical DPPH); assay type: biochemical; conditions: DPPH 50 µM in absolute ethanol; – = did not show any DPPH activity
Protocol: The reducing activity of investigated systems was achieved by the DPPH method according to previously described procedures with modifications to assure the use in a 96-well microplate. Briefly, equal volumes of various concentrations of tested molecules (dissolved in DMSO) were added to the solution of DPPH (final concentration 50 µM in absolute ethanol). Ethanol and DMSO were used as control solutions in line with earlier reports.[27]

## COc1cc(C(=O)Nc2nc3ccc(C#N)cc3n2C)cc(OC)c1OC [Compound 35, N-(6-Cyano-1-methyl-1H-benzo[d]imidazol-2-yl)-3,4,5-trimethoxybenzamide]
H 460 (lung carcinoma)
  IC50: 3.9 ± 0.9 µM
[1]
  IC50: 12.3 ± 1.5 µM
HCT116 (colon carcinoma)
  IC50: 5.2 ± 4.2 µM
MCF-7 (breast carcinoma)
  IC50: 5.5 ± 3.2 µM
[2]
  FRAP: 338.50 ± 21.56 mmolFe^2+/mmolC

## Cc1cc(C(C)(C)C)c(O)c(C(C)(C)C)c1 [BHT, butylated hydroxytoluene, reference compound]
[2]
  FRAP: 679.15 mmolFe^2+/mmolC

## COc1cc(C(=O)Nc2nc3ccc(C#N)cc3n2-c2ccccc2)cc(OC)c1OC [Compound 51, N-(6-Cyano-1-phenyl-1H-benzo[d]imidazol-2-yl)-3,4,5-trimethoxybenzamide]
H 460 (lung carcinoma)
  selectivity of antiproliferative activity among cell lines: selective activity against H 460
  IC50: 4.53 ± 7.3 µM
[1]
  IC50: 61.1 ± 35.7 µM
HCT116 (colon carcinoma)
  IC50: 30.1 ± 13.2 µM
MCF-7 (breast carcinoma)
  IC50: 29.4 ± 19.4 µM
[2]
  FRAP: 132.56 ± 18.06 mmolFe^2+/mmolC

## COc1ccccc1C(=O)Nc1nc2ccccc2n1C [Compound 29, 2-Methoxy-N-(1-methyl-1H-benzo[d]imidazol-2-yl)benzamide]
[3]
  IC50: 6050 ± 1030 µM
[2]
  FRAP: 110.16 ± 1.44 mmolFe^2+/mmolC

## COc1ccc(C(=O)Nc2nc3ccccc3[nH]2)c(OC)c1 [Compound 26, N-(1H-Benzo[d]imidazol-2-yl)-2,4-dimethoxybenzamide]
[3]
  IC50: 41700 ± 1510 µM
[2]
  FRAP: 166.61 ± 9.51 mmolFe^2+/mmolC

## COc1ccccc1C(=O)Nc1nc2ccc(C#N)cc2n1-c1ccccc1 [Compound 49, N-(6-Cyano-1-phenyl-1H-benzo[d]imidazol-2-yl)-2-methoxybenzamide]
[3]
  IC50: 29900 ± 1300 µM
[2]
  FRAP: 221.31 ± 27.39 mmolFe^2+/mmolC

## COc1ccc(C(=O)Nc2nc3ccc(C#N)cc3n2-c2ccccc2)c(OC)c1 [Compound 50, N-(6-Cyano-1-phenyl-1H-benzo[d]imidazol-2-yl)-2,4-dimethoxybenzamide]
[2]
  FRAP: 506.70 ± 7.46 mmolFe^2+/mmolC

## COc1ccc(C(=O)Nc2nc3ccc(C#N)cc3n2CC(C)C)c(OC)c1 [Compound 42, N-(6-Cyano-1-isobutyl-1H-benzo[d]imidazol-2-yl)-2,4-dimethoxybenzamide]
[3]
  IC50: 5350 ± 70 µM

## COc1ccccc1C(=O)Nc1nc2ccccc2n1-c1ccccc1 [Compound 45, 2-Methoxy-N-(1-phenyl-1H-benzo[d]imidazol-2-yl)benzamide]
[3]
  IC50: 8710 ± 340 µM

## N#Cc1ccc2nc(NC(=O)c3ccccc3)n(-c3ccccc3)c2c1 [Compound 48, N-(6-Cyano-1-phenyl-1H-benzo[d]imidazol-2-yl)benzamide]
[2]
  FRAP: 138.98 ± 32.68 mmolFe^2+/mmolC

## COc1cc(C(=O)Nc2nc3ccccc3n2-c2ccccc2)cc(OC)c1OC [Compound 47, 3,4,5-Trimethoxy-N-(1-pheny-1H-benzo[d]imidazol-2-yl)benzamide]
H 460 (lung carcinoma)
  selectivity of antiproliferative activity among cell lines: selective activity against H 460
  IC50: 0.8 ± 1.5 µM
[1]
  IC50: 5.3 ± 2.4 µM
HCT116 (colon carcinoma)
  IC50: 1.6 ± 0.9 µM
MCF-7 (breast carcinoma)
  IC50: 2.9 ± 1.3 µM
[2]
  FRAP: 236.90 ± 1.50 mmolFe^2+/mmolC

## COc1ccccc1C(=O)Nc1nc2ccccc2n1CC(C)C [Compound 37, N-(1-Isobutyl-1H-benzo[d]imidazol-2-yl)-2-methoxybenzamide]
[3]
  IC50: 10550 ± 30 µM

## COc1cc(C(=O)Nc2nc3ccccc3n2C)cc(OC)c1OC [Compound 31, 3,4,5-Trimethoxy-N-(1-methyl-1H-benzo[d]imidazol-2-yl)benzamide]
H 460 (lung carcinoma)
  IC50: 17.7 ± 0.8 µM
[3]
  IC50: 6040 ± 290 µM
[1]
  IC50: 21.7 ± 9.4 µM
HCT116 (colon carcinoma)
  IC50: 18.1 ± 1.4 µM
MCF-7 (breast carcinoma)
  IC50: 23.8 ± 12.4 µM
[2]
  FRAP: 124.28 ± 1.23 mmolFe^2+/mmolC

## Cn1c(NC(=O)c2ccccc2)nc2ccccc21 [Compound 28, N-(1-Methyl-1H-benzo[d]imidazol-2-yl)benzamide]
H 460 (lung carcinoma)
  IC50: 10.7 ± 2.3 µM
[3]
  IC50: ~3780 µM and 3780 µM
[1]
  IC50: 29.5 ± 12.5 µM
HCT116 (colon carcinoma)
  IC50: 18.7 ± 5.1 µM
MCF-7 (breast carcinoma)
  IC50: 11.9 ± 7.5 µM
[2]
  FRAP: 538.81 mmolFe^2+/mmolC and 358.81 ± 4.83 mmolFe^2+/mmolC

## COc1ccc(C(=O)Nc2nc3ccccc3n2C)c(OC)c1 [Compound 30, 2,4-Dimethoxy-N-(1-methyl-1H-benzo[d]imidazol-2-il)benzamide]
[3]
  IC50: 49600 ± 18400 µM

## COc1cc(C(=O)Nc2nc3ccccc3n2CC(C)C)cc(OC)c1OC [Compound 39, N-(1-Isobutyl-1H-benzo[d]imidazol-2-yl)-3,4,5-trimethoxybenzamide]
H 460 (lung carcinoma)
  IC50: 1.7 ± 0.1 µM
[3]
  IC50: 4920 ± 130 µM
[1]
  IC50: 2 ± 0.9 µM
HCT116 (colon carcinoma)
  IC50: 3.1 ± 0.7 µM
MCF-7 (breast carcinoma)
  IC50: 4.6 ± 1.4 µM
[2]
  FRAP: 217.20 ± 3.69 mmolFe^2+/mmolC

## CC(C)Cn1c(NC(=O)c2ccccc2)nc2ccccc21 [Compound 36, N-(1-Isobutyl-1H-benzo[d]imidazol-2-yl)benzamide]
H 460 (lung carcinoma)
  IC50: 5.1 ± 2.6 µM
[3]
  IC50: 4510 ± 20 µM
[1]
  IC50: 5.9 ± 2.4 µM
HCT116 (colon carcinoma)
  IC50: 3.8 ± 0.9 µM
MCF-7 (breast carcinoma)
  IC50: 2.7 ± 1.9 µM
[2]
  FRAP: 179.70 ± 23.42 mmolFe^2+/mmolC

## COc1ccccc1C(=O)Nc1nc2ccccc2[nH]1 [Compound 25, N-(1H-Benzo[d]imidazol-2-yl)-2-methoxybenzamide]
[3]
  IC50: 75700 ± 6080 µM

## COc1ccccc1C(=O)Nc1nc2ccc(C#N)cc2n1CC(C)C [Compound 41, N-(6-Cyano-1-isobutyl-1H-benzo[d]imidazol-2-yl)-2-methoxybenzamide]
[3]
  IC50: 4580 ± 150 µM
[2]
  FRAP: 154.30 ± 5.67 mmolFe^2+/mmolC

## COc1ccc(C(=O)Nc2nc3ccccc3n2-c2ccccc2)c(OC)c1 [Compound 46, 2,4-Dimethoxy-N-(1-phenyl-1H-benzo[d]imidazol-2-yl)benzamide]
[3]
  IC50: 8480 ± 710 µM

## O=C(Nc1nc2ccccc2n1-c1ccccc1)c1ccccc1 [Compound 44, N-(1-Phenyl-1H-benzo[d]imidazol-2-yl)benzamide]
[2]
  FRAP: 184.70 ± 3.22 mmolFe^2+/mmolC

## Cn1c(NC(=O)c2ccccc2)nc2ccc(C#N)cc21 [Compound 32, N-(6-Cyano-1-methyl-1H-benzo[d]imidazol-2-yl)benzamide]
[2]
  FRAP: 160.27 ± 16.35 mmolFe^2+/mmolC

## COc1cc(C(=O)Nc2nc3ccc(C#N)cc3n2CC(C)C)cc(OC)c1OC [Compound 43, N-(6-Cyano-1-isobutyl-1H-benzo[d]imidazol-2-yl)-3,4,5-trimethoxybenzamide]
[1]
  IC50: 4.7 ± 1 µM
HCT116 (colon carcinoma)
  IC50: ~0.6 µM
MCF-7 (breast carcinoma)
  IC50: 3.1 ± 1.7 µM
[2]
  FRAP: 243.30 ± 3.39 mmolFe^2+/mmolC

## COc1cc(C(=O)Nc2nc3ccccc3[nH]2)cc(OC)c1OC [Compound 27, N-(1H-Benzo[d]imidazol-2-yl)-3,4,5-trimethoxybenzamide]
H 460 (lung carcinoma)
  IC50: 17.6 ± 6.7 µM
[3]
  IC50: 6820 ± 410 µM
[1]
  IC50: 23.6 ± 4.4 µM
HCT116 (colon carcinoma)
  IC50: 23.1 ± 15 µM
MCF-7 (breast carcinoma)
  IC50: 32.8 ± 15.6 µM
[2]
  FRAP: 5.59 ± 0.62 mmolFe^2+/mmolC

## COc1cc([C@@H]2c3cc4c(cc3[C@@H](O[C@@H]3O[C@@H]5CO[C@@H](C)O[C@H]5[C@H](O)[C@H]3O)[C@H]3COC(=O)[C@H]23)OCO4)cc(OC)c1O [Etoposide, reference compound]
H 460 (lung carcinoma)
  IC50: 0.1 ± 0.04 µM
HCT116 (colon carcinoma)
  IC50: 5 ± 2 µM
MCF-7 (breast carcinoma)
  IC50: 1 ± 0.7 µM

## COc1ccc(C(=O)Nc2nc3ccccc3n2CC(C)C)c(OC)c1 [Compound 38, N-(1-Isobutyl-1H-benzo[d]imidazol-2-yl)-2,4-dimethoxybenzamide]
[3]
  IC50: 26580 ± 20 µM
[2]
  FRAP: 5.80 ± 0.15 mmolFe^2+/mmolC
